In patent publication US8658699B2, “Chemical permeation enhancers enhance nerve blockade by toxins” (priority 2008, dated 2014):
Where “and” joins values, the source holds several entries; their conditions need not be identical. Equal values may be shown once. Read-outs that look alike come from different tables or passages of the source.

Key:
[1] = test system: sciatic nerves and surrounding muscle
sciatic nerve [2] = assay: animal or person; settings: Rattus norvegicus, read-out: EC50eff (mM)
sciatic nerve [3] = settings: for TTX block duration compared to TTX alone: 30 μM TTX with CPE at the concentration giving maximum percentage of block, p<0.001; for % Animals with Effective Block / Duration of Sensory Block: Bupivacaine 1.4 mM with the EC50eff of each CPE, listed as '—' = bupivacaine alone; for Duration of Sensory Block: median; for ECMBD: CPE concentration that caused the maximum prolongation of block from 30 μM TTX; for CPE Concentration: lowest CPE concentration needed to achieve the highest percentage of animals with block, with 30 μM TTX; for Maximum Block Duration (MBD, minutes): CPE co-injected with 30 μM TTX, 0.3 mL at sciatic nerve, median (25th-75th percentiles); for EC50: read-out: EC50eff
C2C12 myotubes = settings: for % Survival: C2C12 myotubes, 2-hour exposure to each CPE at its EC50eff, head 'TTX 30 μm with:', mean ± SD, from FIG. 2
sciatic nerve [4] = type: in vivo, Sprague-Dawley rats
sciatic nerve [5] = settings: 0.1-0.3 mL of 0.25%-0.5% (8.7-17 mM) bupivacaine (Kohane 1998, 1999); cited from earlier work
[6] = EC50eff of each enhancer without TTX, four days after injection, 4 animals per group
[7] = 30 μM TTX with CPE, effective if latency >7 seconds at any point, listed as '—' = TTX alone

Compound | histology: muscle and nerve injury [1, 6] | EC50 (sciatic nerve [2]) | TTX block duration compared to TTX alone (sciatic nerve [3]) | Highest % Animals with Effective Block (sciatic nerve [3]; [7]) | % Animals with Effective Block (sciatic nerve [3]) | Duration of Sensory Block (sciatic nerve [3]) | ECMBD (sciatic nerve [3]) | CPE Concentration (sciatic nerve [3]) | % Survival (C2C12 myotubes) | Maximum Block Duration (MBD, minutes) (sciatic nerve [3]; listed as '—' = TTX alone) | EC100 min (sciatic nerve [3]; rat, in vivo) | other results
CCCCCCCCCCCCOS(=O)(=O)[O-].[Na+] [SLS, Sodium Dodecyl Sulfate] | no significant muscle or nerve injury | 4 mM | significantly improved TTX block duration | 88% | 50% | 22 min | 35 mM | 17 mM | 17 ± 11% |  |  | EC100 min (sciatic nerve [3]; interpolated concentration of CPE that increased block duration of 30 μM TTX to 100 min): 3 mM
NC1=N[C@H](O)[C@H]2[C@H]3O[C@]4(O)O[C@@H]([C@@H](O)[C@@]2(N1)[C@@H]4O)[C@]3(O)CO [TTX, tetrodotoxin, reference compound] |  |  |  |  |  |  |  |  |  |  |  | % of animals with sensory blockade (effective nerve block) (sciatic nerve [3]; rat, in vivo): 29% and 29.2%; Highest % Animals with Effective Block (sciatic nerve [3]; rat, in vivo): 29%
Cc1cccc(C)c1NC(=O)C[N+](C)(C)C [QX-222, 2-((2,6-dimethylphenyl)amino)-N,N,N-trimethyl-2-oxoethanaminium] |  |  |  |  |  |  |  |  |  |  |  | thermal nociceptive and motor blockade of the combination with TTX (sciatic nerve [4]; 25 and 70 mM QX-314 or 70 and 100 mM QX-222 with 30, 40 or 50 μM TTX, FIGS. 5A and B): increased blockade significantly more than the mere cumulative value of the anesthetics alone
CCCCN1CCCCC1C(=O)Nc1c(C)cccc1C (stereo not drawn) [Bupivacaine, bupivacaine, reference compound] |  |  |  |  | 42% | 0 min |  |  |  |  |  | successful blocks (sciatic nerve [5]): > 99%
CCCCCCCC[N+](C)(C)C.[Br-] [OTAB, Octyl-trimethyl-ammonium Bromide] | no significant muscle or nerve injury | 30 mM | significantly improved TTX block duration | 100% | 0% | 0 min | 119 mM | 40 mM | 53 ± 2% | 353 (327-361) minutes | 31 mM | 
polysorbate 20 [TW 20] | no significant muscle or nerve injury |  | significantly improved TTX block duration | 100% | 25% | 0 min | 49 mM | 4 mM | 94 ± 3% | 163 (129-206) minutes | 4 mM | histology: muscle and nerve injury ([1]; Tween 20 at 24.4 and 81.4 mM): progressively worsening (mild to moderate) muscle atrophy and inflammation; EC50 (sciatic nerve [3]; CPE concentration causing half-maximal increase in duration of block (half-MBD) of 30 μM TTX): 3 mM; C2C12 viability after longer exposure (C2C12 myotubes; CPE at EC50eff, 8-hour exposure / increasing duration of exposure (data not shown)): remained at untreated-control levels
CCCCCCCCOS(=O)(=O)[O-].[Na+] [SOS, Sodium Octyl Sulfate] | no significant muscle or nerve injury | 32 mM | significantly improved TTX block duration | 100% | 25% | 0 min | 86 mM | 32 mM | 5 ± 3% | 521 (361-669) minutes | 22 mM | 
CC[N+](CC)(CC)CC(=O)Nc1c(C)cccc1C [QX-314, N-(2,6)dimethylphenylcarbamoylmethyl triethylammonium bromide] |  |  |  |  |  |  |  |  |  |  |  | thermal nociceptive and motor blockade of the combination with TTX (sciatic nerve [4]; rat, in vivo): increased blockade significantly more than the mere cumulative value of the anesthetics alone
polysorbate 80 [TW 80] | no significant muscle or nerve injury |  | significantly improved TTX block duration | 100% | 0% | 0 min | 81 mM | 81 mM | 80 ± 8% | 120 (111-143) minutes | 40 mM | EC50 (sciatic nerve [3]; rat, in vivo): 34 mM
CCCCCCCCCCCC[N+](C)(C)C.[Br-] [DDAB, Dodecyl-trimethyl-ammonium Bromide] | moderate to severe infiltration of macrophages and lymphocytes, atrophy and degeneration of muscle fibers, and fibrosis of the tissue | 6 mM | significantly improved TTX block duration | 100% | 0% | 0 min | 8 mM | 6 mM | 5 ± 0.2% | 606 (452-788) minutes | 1 mM | histology: tissue damage ([1]; 3% (97.3 mM) DDAB, two animals): deep and severe tissue damage, including ischemic necrosis, accompanied by severe and extensive inflammation; histology: muscle and nerve injury ([1]; EC50eff of the enhancers together with 30 μm TTX): severe lymphocytic inflammatory infiltration of muscle with degenerative changes, regenerative changes, and fibrosis; resolution of nerve block (sciatic nerve [3]; 30 μM TTX in 32 mM DDAB): none of those rats' nerve blocks resolved; nerve blockade by CPE alone (sciatic nerve [3]; 32 mM DDAB alone, without TTX, the exception to 'CPE alone did not cause nerve blockade'): with one exception
